According to PMC7297817, “Pharmacological Characterization of a Betaine/GABA Transporter 1 (BGT1) Inhibitor Displaying an Unusual Biphasic Inhibition Profile and Anti-seizure Effects” (Neurochemical Research, 2020):
Read-outs that look alike come from different tables or passages of the source.

Columns and labels:
5-HT5A = molecular target: T1, 5-HT5A (Homo sapiens, UniProt P47898); assay: NIMH PDSP radioligand binding, 5-HT5A; settings: radioligand [3H]LSD, n=4
T1 construct: purchased NIMH Psychoactive Drug Screening Program (PDSP)
T1 sequence (P47898 whole entry): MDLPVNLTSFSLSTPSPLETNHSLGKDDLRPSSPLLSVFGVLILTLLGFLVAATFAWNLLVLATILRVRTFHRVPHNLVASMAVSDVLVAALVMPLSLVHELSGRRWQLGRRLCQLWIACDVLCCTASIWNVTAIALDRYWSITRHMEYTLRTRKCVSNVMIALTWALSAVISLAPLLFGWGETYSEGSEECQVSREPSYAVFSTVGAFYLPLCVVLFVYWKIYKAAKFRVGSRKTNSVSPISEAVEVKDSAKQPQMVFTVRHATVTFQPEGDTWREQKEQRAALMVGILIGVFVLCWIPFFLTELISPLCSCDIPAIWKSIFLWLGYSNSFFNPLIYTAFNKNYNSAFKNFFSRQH

hBGT1 = molecular target: T2, hBGT1 (Homo sapiens, UniProt P48065); assay: [3H]GABA uptake at hBGT1 transiently expressed in tsA201 cells; assay type: cell-based
T2 construct: expressed in transfected cells; host or cells: tsA201 (transient)
T2 sequence (P48065 1-614): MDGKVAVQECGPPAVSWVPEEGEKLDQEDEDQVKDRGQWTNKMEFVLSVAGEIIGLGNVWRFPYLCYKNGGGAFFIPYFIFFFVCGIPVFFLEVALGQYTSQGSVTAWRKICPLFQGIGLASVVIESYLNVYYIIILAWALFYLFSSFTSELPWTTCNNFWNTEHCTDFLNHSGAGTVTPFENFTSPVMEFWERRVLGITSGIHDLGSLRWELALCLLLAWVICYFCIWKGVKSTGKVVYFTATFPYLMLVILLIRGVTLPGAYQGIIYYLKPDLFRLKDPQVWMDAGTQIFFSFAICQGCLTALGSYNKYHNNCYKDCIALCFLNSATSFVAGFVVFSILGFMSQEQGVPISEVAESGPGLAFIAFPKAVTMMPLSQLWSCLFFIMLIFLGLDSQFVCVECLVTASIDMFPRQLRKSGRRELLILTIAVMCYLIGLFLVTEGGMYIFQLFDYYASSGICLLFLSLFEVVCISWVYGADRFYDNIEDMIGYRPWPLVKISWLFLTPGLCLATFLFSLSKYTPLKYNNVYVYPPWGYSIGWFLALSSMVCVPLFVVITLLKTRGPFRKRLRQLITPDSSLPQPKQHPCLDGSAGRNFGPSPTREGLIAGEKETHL
Method: The tsA201 cell line was used for transient expression while the MDCK II cell line express BGT1 endogenously. Both cell lines were cultured as described. tsA201 cells were transfected with DNA constructs (8 μg per 10 cm dish if not otherwise mentioned) using 40 μL PolyFect transfection reagent according to the manufacturer’s protocol (Qiagen, Venlo, Netherlands). The DNA constructs encoding hBGT1, hGAT1-3 [36], the mutated constructs hBGT1 Q299 and hGAT3 L314Q described previously, and hBGT Y453A were synthesized and sequence validated by Genscript (NJ, USA).
The [^3H]GABA competition uptake assay was performed as previously described. […] Studies related to the inhibition curves with GABA and BPDBA at hBGT1 were obtained both with and without the presence of 10 μM ATP during the [^3H]GABA uptake assay.
All compounds, except BAPTA/AM, were also present at the same concentration during the course of the actual [^3H]GABA uptake assay.
The [^3H]GABA uptake data was normalized to the percentage of total uptake in the individual experiments in the presence of the lowest compound concentration or no compound present. Data presented is the pooled data of at least three independent experiments with three technical replicates. Concentration–response curves (CRCs) were fitted with GraphPad Prism (version 8.2.1, Yosemite, GraphPad Software, San Diego, CA, USA) by non-linear regression to the sigmoidal concentration response model: Y=Bottom+(Top-Bottom)/1+10^LogIC50-X∗nH where Top is the Top plateau, Bottom is the Bottom plateau, X is the logarithm of the concentration of the compound, LogIC50 is the concentration giving a response halfway between Top and Bottom,and nH is the Hill slope.
The best fit for CRCs obtained with the [^3H]GABA uptake assay was identified by the extra-sum-of-squares F test (for convenience referred to as F test).

[1] = 30 min pre-incubation with 25 μM BAPTA/AM
[2] = control: 30 min pre-incubation in assay buffer

**Q.** For `Cc1ccsc1C(=CCCN(C)[C@H]1CCCC[C@H]1C(=O)O)c1sccc1C` [SBV2-114, (1R,2S)-2-((4,4-bis(3-methylthiophen-2-yl)but-3-en-yl)(methyl)amino)cyclohexanecarboxylic acid], which inhibition at 10 µM (5-HT5A) is on record?
**A.** 36.6%

**Q.** What about the “inhibition profile (mono-/biphasic)” value (hBGT1; 30 nM [3H]GABA, 3 min, F test) of the same compound?
**A.** biphasic

**Q.** What about the Frac (hBGT1; 2 μg cDNA (n=2)) of the same compound?
**A.** 0.44

**Q.** What about the nH1 (hBGT1; 2 μg cDNA (n=2)) of the same compound?
**A.** -0.86

**Q.** What about the nH2 (hBGT1; 2 μg cDNA (n=2)) of the same compound?
**A.** -1.75

**Q.** And the Frac (hBGT1; 4 μg cDNA (n=2))?
**A.** 0.32

**Q.** What about the nH1 (hBGT1; 4 μg cDNA (n=2)) of the same compound?
**A.** -1.31

**Q.** What about the nH2 (hBGT1; 4 μg cDNA (n=2)) of the same compound?
**A.** 1.62

**Q.** What about the Frac (hBGT1; [1]) of the same compound?
**A.** 0.15

**Q.** What about the nH1 (hBGT1; [1]) of the same compound?
**A.** -2.02

**Q.** What about the preferred curve fitting (hBGT1; 30 min pre-incubation with and presence of 1 μM A 804598) of the same compound?
**A.** biphasic fit

**Q.** And the preferred curve fitting (hBGT1; 30 min pre-incubation with and presence of 5 μM U-73122)?
**A.** biphasic fit

**Q.** And the IC50 (hBGT1; IC50, high affinity component (low IC50), biphasic fit, 30 nM [3H]GABA, 3 min, tsA201, 8 μg cDNA)?
**A.** 4.7 µM

**Q.** And the IC50 (hBGT1; IC50, high affinity component, 30 min pre-incubation with 25 μM BAPTA/AM)?
**A.** 5.2 µM

**Q.** And the IC50 (hBGT1; IC50, high affinity component, control: 30 min pre-incubation at 37 °C in assay buffer)?
**A.** 6.1 µM

**Q.** What about the “% inhibition (Frac value) at the low IC50” value (hBGT1; biphasic fit) of the same compound?
**A.** 42%

**Q.** What about the Frac (hBGT1; cells pre-incubated for 10 min with SBV2-114 prior to uptake) of the same compound?
**A.** 0.34

**Q.** What about the Frac (hBGT1; [2]) of the same compound?
**A.** 0.21

**Q.** What about the nH1 (hBGT1; [2]) of the same compound?
**A.** -0.76

**Q.** What about the nH2 (hBGT1; [2]) of the same compound?
**A.** -2.05

**Q.** And the IC50 (hBGT1; pIC50 ± S.E.M., high affinity component, 2 μg cDNA (n=2), biphasic fit)?
**A.** 3.39 µM

**Q.** And the IC50 (hBGT1; pIC50 ± S.E.M., high affinity component, 4 μg cDNA (n=2), biphasic fit)?
**A.** 2.19 µM

**Q.** What about the IC50 (hBGT1; pIC50 ± S.E.M., high affinity component, biphasic fit, 30 nM [3H]GABA, 3 min, tsA201, 8 μg cDNA) of the same compound?
**A.** 5.25 µM

**Q.** What about the Frac (hBGT1; proportion of maximal response due to the more potent phase, 8 μg cDNA) of the same compound?
**A.** 0.42

**Q.** And the IC50 (hBGT1; read-out: IC50, low affinity component (high IC50), biphasic fit, 30 nM [3H]GABA, 3 min, tsA201, 8 μg cDNA)?
**A.** 556 µM

**Q.** And the IC50 (hBGT1; read-out: IC50, low affinity component, 2 μg cDNA (n=2), biphasic fit)?
**A.** 518 µM

**Q.** And the IC50 (hBGT1; read-out: IC50, low affinity component, 4 μg cDNA (n=2), biphasic fit)?
**A.** 514 µM

**Q.** What about the IC50 (hBGT1; read-out: IC50, low affinity component, 30 min pre-incubation with 25 μM BAPTA/AM) of the same compound?
**A.** 513 µM

**Q.** And the IC50 (hBGT1; read-out: IC50, low affinity component, control: 30 min pre-incubation at 37 °C in assay buffer)?
**A.** 507 µM
